Measurements published in patent publication US20130225609A1, “COMBINATIONS OF MEDICAMENTS, CONTAINING PDE4-INHIBITORS AND EP4-RECEPTOR-ANTAGONISTS” (BOEHRINGER INGELHEIM INTERNATIONAL GMBH, priority 2010, published 2013).

How the values were obtained:
[1] = Experiment 2: Lumiracoxib (COX-2 selective) / SC-560 (COX-1 selective) and roflumilast-mediated side effects in rats; format: in vivo, male Wistar rats; conditions: four days
From the text: Six male Wistar rats were given a daily dosage of 0.5%
For pharmacokinetic analysis (determining plasma levels of the substances) one rat from each group was used on day 4; these rats were no longer available for the investigation of other parameters.

[2] = Experiment 3: EP4 antagonist MF498 and roflumilast-mediated side effects in rats; format: in vivo, male Wistar rats; conditions: four days
Description: Six male Wistar rats were given a daily dosage of 0.5% Natrosol (Placebo) at 1300 hours.
Six male Wistar rats were given a daily dosage of 20 mg/kg MF-498 (EP4 antagonist) in each case at 1300 hours.
Six male Wistar rats were given a daily dosage of 10 mg/kg Roflumilast (PDE4 inhibitor) at 1300 hours.

[3] = Experiment 1: diclofenac and roflumilast-mediated side effects in rats
Description: Six male Wistar rats in each group were treated for four days with the following substances (all substances are given p.o.=orally):
Group 1 (“Control Group”):
Six male Wistar rats were given a daily dose of 0.5% Natrosol (placebo) at the times 0800, 1300 and 1700 hours.
Group 2 (“Diclofenac Group”):
Six male Wistar rats were given a daily dose of 1 mg/kg of diclofenac (NSAID) at the times 0800 and 1700 hours and 0.5% Natrosol (placebo) at 1300 hours.
Group 3 (“Roflumilast Group”):
Six male Wistar rats were given a daily dose of 0.5% Natrosol (placebo) at 0800 and 1700 hours and 10 mg/kg roflumilast (PDE4 inhibitor) at 1300 hours.
Group 4 (“Roflumilast+Diclofenac Group”):
Six male Wistar rats were given a daily dose of 1 mg/kg diclofenac (NSAID) at the times 0800 and 1700 hours and 10 mg/kg roflumilast (PDE4 inhibitor) at 1300 hours.
For pharmacokinetic analysis (determining the plasma levels of the substances) on day 4 one rat from each group was used; these rats were no longer available for other parameters under investigation.
During the experiment the body weights of the animals were determined and the differences in the body weights of the rats from the different groups towards the end of the experiment were shown as a percentage change from the time of the first administration (=day 1, 0800 hours (=time t0)). The average±standard deviation of the body weights at time t0 was 355±17 g.
At the end of the experiment (day 5, 95 hours after t0 (=the time of the first administration on day 1, 0800)) the proportion of neutrophils (in % of white blood cells, FIG. 2) were determined from the blood of 4 or 5 of the rats from the individual groups. In addition, the weights of the animals' spleens were measured and the mesenteries were dissected for histopathological investigation for vasculitis (multifocal perivascular mononuclear/polymorphonuclear infiltration).

[4] = Experiment 4: EP2-preferential antagonist AH6809 and roflumilast-mediated side effects in rats; format: in vivo, male Wistar rats; conditions: four days
Description: Six male Wistar rats were given a daily dosage of 10 mg/kg AH-6809 (preferential EP2 antagonist) at 1300 hours. Six male Wistar rats were given a daily dosage of 10 mg/kg Roflumilast (PDE4 inhibitor) at 1300 hours.

[5] = 2 mg/kg p.o. at 0800 and 1700 hours + 10 mg/kg roflumilast p.o. at 1300 hours
[6] = 20 mg/kg p.o. + 10 mg/kg roflumilast p.o. at 1300 hours
[7] = 1 mg/kg p.o. at 0800 and 1700 hours + 10 mg/kg roflumilast p.o. at 1300 hours, four days
[8] = Roflumilast group: 10 mg/kg roflumilast p.o. daily
[9] = 10 mg/kg p.o. + 10 mg/kg roflumilast p.o. at 1300 hours

Cc1ccc(Nc2c(F)cccc2Cl)c(CC(=O)O)c1 [Lumiracoxib]
effect of co-administration on roflumilast-mediated loss of body weight (FIG. 5) [1, 5]: substantially reduced or prevented
effect of co-administration on roflumilast-mediated loss of spleen weight (FIG. 6) [1, 5]: substantially reduced or prevented
effect of co-administration on roflumilast-mediated mesenteric vasculitis (FIG. 8) [1, 5]: substantially reduced or prevented
effect of co-administration on roflumilast-mediated neutrophilia (FIG. 7) [1, 5]: substantially reduced or prevented
parameters measured after administration on its own (body weight, spleen weight, neutrophils, vasculitis) ([1]; 2 mg/kg p.o. at 0800 and 1700 hours, without roflumilast): very similar to the control groups

CCOc1c2c(c(OCC)c3ncccc13)CN(c1ccc(CS(=O)(=O)NC(=O)Cc3ccccc3OC)cc1C)C2=O [MF-498, N-{[4-(5,9-diethoxy-6-oxo-6,8-dihydro-7H-pyrrolo[3,4-g]quinolin-7-yl)-3-methylbenzyl]sulphonyl}-2-(2-methoxyphenyl)acetamide]
effect of co-administration on roflumilast-mediated loss of body weight (FIG. 9) [2, 6]: substantially reduced
effect of co-administration on roflumilast-mediated loss of spleen weight (FIG. 10) [2, 6]: substantially reduced
effect of co-administration on roflumilast-mediated mesenteric vasculitis (FIG. 12) [2, 6]: substantially reduced
effect of co-administration on roflumilast-mediated neutrophilia (FIG. 11) [2, 6]: substantially reduced
differences in the weight of the spleen between the Roflumilast group and the Roflumilast+MF-498 group (statistics) ([2]; 20 mg/kg p.o. + 10 mg/kg roflumilast p.o., two-way analysis of variance): do not achieve statistical significance
parameters measured after administration on its own (body weight, spleen weight, neutrophils, vasculitis) ([2]; 20 mg/kg p.o. daily, without roflumilast): very similar to the control group

O=C(O)Cc1ccccc1Nc1c(Cl)cccc1Cl [diclofenac]
effect of co-administration on roflumilast-mediated loss of body weight (FIG. 1) [3, 7]: substantially reduced or prevented
effect of co-administration on roflumilast-mediated loss of spleen weight (FIG. 2) [3, 7]: substantially reduced or prevented
effect of co-administration on roflumilast-mediated mesenteric vasculitis (FIG. 4) [3, 7]: substantially reduced or prevented
effect of co-administration on roflumilast-mediated neutrophilia (FIG. 3) [3, 7]: substantially reduced or prevented
parameters measured after administration on its own (body weight, spleen weight, neutrophils, vasculitis) ([3]; 1 mg/kg p.o. at 0800 and 1700 hours, four days, without roflumilast): very similar to the control groups

O=C(Nc1c(Cl)cncc1Cl)c1ccc(OC(F)F)c(OCC2CC2)c1 [Roflumilast]
loss of body weight (FIG. 9) [2, 8]: observed
loss of spleen weight (FIG. 10) [2, 8]: observed
mesenteric vasculitis (monocyte/polymorphonuclear perivascular infiltration into the mesentery, FIG. 12) [2, 8]: observed
neutrophilia (FIG. 11) [2, 8]: observed
loss of body weight (FIG. 5) [1, 8]: observed
loss of spleen weight (FIG. 6) [1, 8]: observed
mesenteric vasculitis (monocyte/polymorphonuclear perivascular infiltration into the mesentery, FIG. 8) [1, 8]: observed
neutrophilia (FIG. 7) [1, 8]: observed
loss of body weight (FIG. 13) [4, 8]: observed
loss of spleen weight (FIG. 14) [4, 8]: observed
mesenteric vasculitis (monocyte/polymorphonuclear perivascular infiltration in the mesentery, FIG. 16) [4, 8]: observed
neutrophilia (FIG. 15) [4, 8]: observed
death of animals ([3]; Roflumilast group: 10 mg/kg p.o. daily, six rats per group): one rat from the roflumilast group which died between day 4 and day 5

CC(C)Oc1ccc2c(=O)c3cc(C(=O)O)ccc3oc2c1 [AH6809, 6-isopropoxy-9-oxoxanthene-2-carboxylic acid]
effect of co-administration on roflumilast-mediated loss of body weight (FIG. 13) [4, 9]: no indications that the EP2 preferential receptor antagonist AH-809 had any influence
effect of co-administration on roflumilast-mediated loss of spleen weight (FIG. 14) [4, 9]: no indications that the EP2 preferential receptor antagonist AH-809 had any influence
effect of co-administration on roflumilast-mediated mesenteric vasculitis (FIG. 16) [4, 9]: no indications that the EP2 preferential receptor antagonist AH-809 had any influence
effect of co-administration on roflumilast-mediated neutrophilia (FIG. 15) [4, 9]: no indications that the EP2 preferential receptor antagonist AH-809 had any influence
effect of EP2 blockage on the parameters measured (roflumilast-mediated side effects, overall) ([4]; 10 mg/kg p.o. + 10 mg/kg roflumilast p.o.): shows no effect on the parameters measured
parameters measured after administration on its own (body weight, spleen weight, neutrophils, vasculitis) ([4]; 10 mg/kg p.o. daily, without roflumilast): very similar to the control group
